Results published in patent US7169778B2, “Pteridinones as kinase inhibitors” (Warner-Lambert Company, priority 1999, dated 2007).

Experiments:
[1] = biological target: N-terminal truncated Wee 1 (Homo sapiens, UniProt P30291); experiment: Wee 1 OY kinase assay; type: biochemical; details: read-out: WEE1OY IC50
Protocol: These kinase assays are carried out on 96-well filter plates (Millpore, Cat. MADPN0B50) in 50 μL kinase assay buffer (50 mM Tris, pH 8.0, 10 mM NaCl, 10 mM MgCl2, 10 μM ATP with 0.25 μCi [r-32P]ATP, 1 mM DTT) with 0.1 μg purified N-terminal truncated Wee 1 and 6 μg poly(Orn, Tyr)4:1 (Sigma, P4534). The assay is started by adding ATP and incubating at room temperature for 20 minutes with shaking. The reactions are terminated by adding 50 μL ice-cold 20% TCA (trichloracetic acid) with 0.1 M sodium pyrophosphate and shaking the resultant mixture for 1 minute. The plate is then incubated at 4° C. for 1 hour to allow protein to precipitate. These plates are then washed 5 times with 200 μL ice-cold 10% TCA and with 0.1 M sodium pyrophosphate per wash. Twenty-five microliters scintillation liquid is then added to each well, and the plate is counted in Wallac's MicroBeta counter 1450.

C-src kinase = C-src kinase (Homo sapiens, UniProt P12931); experiment: C-src kinase assay; type: biochemical
Protocol: C-src kinase was purified from baculovirus infected insect cell lysates using an antipeptide monoclonal antibody directed against the N-terminal amino acids (amino acids 2–17) of c-src. The antibody, covalently linked to 0.65 μm latex beads, was added to a suspension of insect cell lysis buffer comprised of 150 mM NaCl, 50 mM Tris pH 7.5, 1 mM DTT, 1% NP-40, 2 mM EGTA, 1 mM sodium vanadate, 1 mM PMSF, 1 μg/mL each of leupeptin, pepstatin, and aprotinin. Insect cell lysate containing c-src protein was incubated with these beads for 3 to 4 hours at 4° C. with rotation. At the end of the lysate incubation, the beads were rinsed three times in lysis buffer, resuspended in lysis buffer containing 10% glycerol, and frozen. These latex beads were thawed, rinsed three times in assay buffer (40 mM Tris, pH 7.5, 5 mM mgCl2) and suspended in the same buffer. In a Millipore 96-well plate with a 0.65 μm polyvinylidine membrane bottom were added the reaction components: 10 μL C-src beads, 10 μL of 2.5 mg/mL poly GluTyr substrate, 5 μM ATP containing 0.2 μCi labeled ^32P-ATP, 5 μL DMSO containing inhibitors or as a solvent control, and buffer to make the final volume 125 μL. The reaction was started at room temperature by addition of the ATP and quenched 10 minutes later by the addition of 125 μL of 30% TCA, 0.1 M sodium pyrophosphate for 5 minutes on ice. The plate was then filtered and the wells washed with two […] aliquots of 15% TCA, 0.1 M pyrophosphate. The filters were then punched, counted in a liquid scintillation counter, and the data examined for inhibitory activity in comparison to a known inhibitor such as erbstatin. The method is also described in J. Med. Chem., 1994;37:598–609.

[2] = biological target: T1, human FGF-1 (flg) receptor tyrosine kinase (Homo sapiens, UniProt P11362); experiment: FGF receptor tyrosine kinase assay; type: biochemical; details: for inhibition at 5 µM: @ 5 (unit μm), read-out: FGF % @ concentration
T1 construct: amplify a fragment of DNA that codes for the intracellular tyrosine kinase domain; made in house; host or cells: SF9 insect cells (baculovirus)
Description: (§1) Full-length cDNAs for the mouse PDGF-β and human FGF-1 (flg) receptor tyrosine kinases were obtained from J. Escobedo and prepared as described in J. Biol. Chem., 1991;262:1482–1487. PCR primers were designed to amplify a fragment of DNA that codes for the intracellular tyrosine kinase domain. The fragment was inserted into a baculovirus vector, cotransfected with AcMNPV DNA, and the recombinant virus isolated. SF9 insect cells were infected with the virus to overexpress the protein, and the cell lysate was used for the assay. Assays were performed in 96-well plates (100 μL/incubation/well), and conditions were optimized to measure the incorporation of ^32P from γ^32P-ATP into a glutamate-tyrosine co-polymer substrate. Briefly, to each well was added 82.5 μL of incubation buffer containing 25 mM Hepes (pH 7.0), 150 mM NaCl, 0.1% Triton X-100, 0.2 mM PMSF, 0.2 mM Na3VO4, 10 mM MnCl2, and 750 μg/mL of Poly (4:1) glutamate-tyrosine followed by 2.5 μL of inhibitor and 5 μL of enzyme lysate (7.5 μg/μL FGF-TK or 6.0 μg/μL PDGF-TK) to initiate the reaction. Following a 10 minute incubation at 25° C., […] of γ^32P-ATP (0.4 μCi plus 50 μM ATP) was added to each well, and samples were incubated for an additional 10 minutes at 25° C. The reaction was terminated by the addition of 100 μL of 30% TCA containing 20 mM sodium pyrophosphate and precipitation of material onto glass fiber mats (Wallac). Filters were washed three times with 15% TCA containing 100 mM sodium pyrophosphate, and the radioactivity retained on the filters counted in a Wallac 1250 Betaplate reader. Nonspecific activity was defined as radioactivity retained on the filters following incubation of samples with buffer alone (no enzyme). Specific enzymatic activity (enzyme plus buffer) was defined as total activity minus nonspecific activity. The concentration of a compound that inhibited specific activity by 50% (IC50) was determined based on the inhibition curve.

[3] = biological target: T2, mouse PDGF-β receptor tyrosine kinase (Mus musculus, UniProt P05622); experiment: PDGF receptor tyrosine kinase assay; type: biochemical
T2 construct: amplify a fragment of DNA that codes for the intracellular tyrosine kinase domain; made in house; host or cells: SF9 insect cells (baculovirus)
Description: as §1

Chain of C-src kinase (P12931 whole entry, the tested form may be a part): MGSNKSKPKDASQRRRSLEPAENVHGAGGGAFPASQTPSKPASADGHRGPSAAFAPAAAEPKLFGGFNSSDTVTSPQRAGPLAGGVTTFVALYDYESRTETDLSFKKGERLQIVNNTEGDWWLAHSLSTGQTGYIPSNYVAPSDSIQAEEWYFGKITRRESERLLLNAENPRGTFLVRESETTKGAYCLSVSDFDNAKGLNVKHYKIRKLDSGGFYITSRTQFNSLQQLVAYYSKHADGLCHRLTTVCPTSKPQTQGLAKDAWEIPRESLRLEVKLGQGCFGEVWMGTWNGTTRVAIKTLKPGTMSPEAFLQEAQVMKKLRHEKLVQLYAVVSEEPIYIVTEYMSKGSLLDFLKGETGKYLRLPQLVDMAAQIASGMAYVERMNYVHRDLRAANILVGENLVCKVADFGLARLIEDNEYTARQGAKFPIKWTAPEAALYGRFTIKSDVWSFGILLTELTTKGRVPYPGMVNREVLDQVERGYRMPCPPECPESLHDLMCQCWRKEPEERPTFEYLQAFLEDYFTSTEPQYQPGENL
T1 sequence (P11362 478-767 limits assumed): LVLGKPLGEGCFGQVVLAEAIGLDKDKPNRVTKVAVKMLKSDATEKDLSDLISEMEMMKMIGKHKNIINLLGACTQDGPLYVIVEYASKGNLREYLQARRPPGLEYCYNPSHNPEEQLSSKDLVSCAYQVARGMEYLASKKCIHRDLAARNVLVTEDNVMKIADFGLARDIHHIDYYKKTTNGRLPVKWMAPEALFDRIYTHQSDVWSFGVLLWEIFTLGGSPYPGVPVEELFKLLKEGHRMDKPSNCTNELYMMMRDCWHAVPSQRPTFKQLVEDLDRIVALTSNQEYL
Chain of N-terminal truncated Wee 1 (P30291 299-569 limits assumed): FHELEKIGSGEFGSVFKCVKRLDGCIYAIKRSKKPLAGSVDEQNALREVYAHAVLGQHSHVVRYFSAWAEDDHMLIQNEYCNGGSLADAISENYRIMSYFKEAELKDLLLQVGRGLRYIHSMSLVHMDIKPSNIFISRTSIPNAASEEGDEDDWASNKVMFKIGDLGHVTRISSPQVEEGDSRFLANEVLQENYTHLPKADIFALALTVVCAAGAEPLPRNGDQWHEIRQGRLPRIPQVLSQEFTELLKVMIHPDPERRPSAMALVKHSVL
T2 sequence (P05622 599-961 limits assumed): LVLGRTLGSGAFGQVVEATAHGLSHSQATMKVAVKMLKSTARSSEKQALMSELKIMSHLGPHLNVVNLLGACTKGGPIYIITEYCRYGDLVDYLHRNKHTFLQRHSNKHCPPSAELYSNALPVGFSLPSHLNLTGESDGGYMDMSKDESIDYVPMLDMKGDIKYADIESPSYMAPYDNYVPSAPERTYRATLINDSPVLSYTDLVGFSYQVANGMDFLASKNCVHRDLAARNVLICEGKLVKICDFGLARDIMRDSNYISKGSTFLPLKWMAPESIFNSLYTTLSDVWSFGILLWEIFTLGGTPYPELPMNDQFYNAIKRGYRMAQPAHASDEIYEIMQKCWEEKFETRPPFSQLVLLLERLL

SMILES | IC50 [1] [µM] | IC50 (C-src kinase) [µM] | IC50 [2] [µM] | IC50 [3] [µM] | melting point [°C] | inhibition at 5 µM [2] [%]
Cn1c(=O)c(-c2ccccc2)nc2cnc(Nc3ccc(N4CCOCC4)cc3)nc21 [Compound 1] | > 50 | > 50 | > 50 | > 50 | 302 to 304.5 | –
Cn1c(=O)c(-c2c(Cl)cccc2Cl)nc2cnc(Nc3ccc(N4CCOCC4)cc3)nc21 [Compound 2, 6-(2,6-Dichlorophenyl)-8-methyl-2-[[4-(morpholin-4-yl)phenyl]amino]-8H-pteridin-7-one] | 0.144 | 0.057 | > 50 | 7.7 | 292 to 293 | –
CCN(CC)CCOc1ccc(Nc2ncc3nc(-c4ccccc4)c(=O)n(C)c3n2)cc1 [Compound 3, 2-[[4-[2-(Diethylamino)ethoxy]phenyl]amino]-8-methyl-6-phenyl-8H-pteridin-7-one] | > 50 | 1.53 | – | 7.55 | 162 to 165 | 54
CCN(CC)CCOc1ccc(Nc2ncc3nc(-c4c(Cl)cccc4Cl)c(=O)n(C)c3n2)cc1 [Compound 4, 6-(2,6Dichlorophenyl)-2-[[4-[2-(diethylamino)ethoxy]phenyl]amino]-8-methyl-8H-pteridin-7-one] | 0.861 | 0.015 | – | 0.7 | 156 to 161 | 69
CCN(CC)C(=O)c1ccc(Nc2ncc3nc(-c4ccccc4)c(=O)n(C)c3n2)cc1 [Compound 5, 2-[[4-(Diethylaminocarbonyl)phenyl]amino]-8-methyl-6-phenyl-8H-pteridin-7-one] | > 50 | > 50 | – | > 50 | 250 to 252 | 38
CCN(CC)C(=O)c1ccc(Nc2ncc3nc(-c4c(Cl)cccc4Cl)c(=O)n(C)c3n2)cc1 [Compound 6, 6-(2,6-Dichlorophenyl)-2-[[4-(diethylaminocarbonyl)phenyl]amino]-8-methyl-8H-pteridin-7-one] | 0.987 | 0.29 | 0.05 | 3.13 | 239 to 241 | –
Cn1c(=O)c(-c2c(Cl)cncc2Cl)nc2cnc(Nc3ccc(N4CCOCC4)cc3)nc21 [Compound 12, 6-(3,5-Dichloropyridin-4-yl)-8-methyl-2-[[4-(morpholin-4-yl)phenyl]amino]-8H-pteridin-7-one] | 1.01 | 0.38 | – | 25.4 | 243 to 245 | –
CCN(CC)C(=O)c1ccc(Nc2ncc3nc(-c4c(Cl)cncc4Cl)c(=O)n(C)c3n2)cc1 [Compound 13, 6-(3,5-Dichloropyridin-4yl)-2-[[4-(diethylaminocarbonyl)phenyl]-amino]-8-methyl-8H-pteridin-7-one] | 4.49 | 0.5 | – | – | 230 to 231 | 17
CCN(CC)CCOc1ccc(Nc2ncc3nc(-c4cc(OC)cc(OC)c4)c(=O)n(CC)c3n2)cc1 [Compound 14, 6-(3,5-Dimethoxyphenyl)-8-ethyl-2-[[4-[2-(diethylamino)ethoxyl]-phenyl]amino]-8H-pteridin-7-one] | – | – | 30 | – | 154 to 155 | –
CCn1c(=O)c(-c2cc(OC)cc(OC)c2)nc2cnc(Nc3ccncc3)nc21 [Compound 15, 6-(3,5-Dimethoxyphenyl)-8-ethyl-2-[(pyridin-4-yl)amino]-8H-pteridin-7-one] | – | – | – | – | 245 to 246.5 | –
COc1nc(OC)c(Cl)c(-c2nc3cnc(Nc4ccc(N5CCOCC5)cc4)nc3n(C)c2=O)c1Cl [Compound 18, 6-(3,5-Dichloro-2,6-dimethoxypyridin-4-yl)-8-methyl-2-[[4-(morpholin-4-yl)phenyl]amino]-8H-pteridin-7-one] | > 50 | 20 | 0.23 | – | 275 to 276 | –
Cn1c(=O)c(-c2c(Br)cncc2Br)nc2cnc(Nc3ccc(N4CCOCC4)cc3)nc21 [Compound 19, 6-(3,5-Dibromopyridin-4-yl)-8-methyl-2-[[4-(morpholin-4-yl)phenyl]amino]-8H-pteridin-7-one] | 7.4 | 1.45 | – | – | 204 to 206 | –
CCN(CC)CCOc1ccc(Nc2ncc3nc(-c4c(Cl)cncc4Cl)c(=O)n(C)c3n2)cc1 [Compound 20, 6-(3,5-Dichloropyridin-4-yl)-8-methyl-2-[[4-[2-(diethylamino)ethoxy]-phenyl]amino]-8H-pteridin-7-one] | 7.07 | 0.12 | – | – | 179 to 180.5 | –
CCN(CC)CCOc1ccc(Nc2ncc3nc(-c4c(Cl)c(OC)nc(OC)c4Cl)c(=O)n(C)c3n2)cc1 [Compound 21, 6-(3,5-Dichloro-2,6-dimethoxypyridin-4-yl)-8-methyl-2-[[4-[2-(diethylamino)ethoxy]phenyl]amino]-8H-pteridin-7-one] | > 50 | 6.8 | 0.054 | – | – | –
CCN(CC)C(=O)c1ccc(Nc2ncc3nc(-c4c(Cl)c(OC)nc(OC)c4Cl)c(=O)n(C)c3n2)cc1 [Compound 22, 6-(3,5Dichloro-2,6-dimethoxypyridin-4-yl)-2-[[4-(diethylaminocarbonyl)phenyl]amino]-8-methyl-8H-pteridin-7-one] | > 50 | 47 | 0.16 | – | 274 to 276 | –
O=c1[nH]c2cnc(Nc3ccc(N4CCOCC4)cc3)nc2n(C2CCCC2)c1=O [Compound 23, 8-Cyclopentyl-2-[[4-(morpholin-4-yl]phenyl]amino]-5H,8H-pteridine-6,7-dione] | – | – | – | – | 283 to 286 | –
CN1CCN(c2ccc(Nc3ncc4[nH]c(=O)c(=O)n(C5CCCC5)c4n3)cc2)CC1 [Compound 24, 8-Cyclopentyl-2-[[4-(4-methylpiperazin-1-yl)phenyl]amino]-5H,8H-pteridine-6,7-dione] | – | 4.35 | – | – | 266 to 270 | –
